Results taken from patent publication US11731966B2, “Compounds and their methods of use” (Praxis Precision Medicines, Inc., priority 2017, dated 2023).

Molecular target: T1, human NaV1.6 (hNaV1.6) (Homo sapiens, UniProt Q9UQD0)
T1 construct: expressed in transfected cells; host or cells: HEK-293 (G418 selection)
Experiment: Modulation of late (persistent) sodium current (INaL), PatchXpress electrophysiology, HEK-293 cells expressing hNaV1.6, ATX-II evoked
Type: cell-based
Details: 1 μM compound, HEK-293 cells expressing recombinant human NaV1.6, late current evoked by 300 nM ATX-II, steady-state inhibition; for inhibition at 1 µM: HEK293
Method: Functional characterization of exemplary compounds to modulate INaL expressed by the NaV16 voltage-gated sodium channel was accomplished using the PatchXpress™ high throughput electrophysiology platform (Molecular Devices, Sunnyvale, Calif.). HEK-293 cells expressing recombinant, human NaV1.6 (hNaV1.6) were grown in DMEM/high-glucose Dulbecco's modified, 10% FBS, 2 mM sodium pyruvate, 10 mM HEPES and 400 μg/mL G418. Cells were grown to 50%-80% confluency prior to harvesting. Trypsinized cells were washed, allowed to recover for 1 hour and then resuspended in extracellular recording solution at a concentration of 1×10^6 cells/ml. The onboard liquid handling facility of the PatchXpress was used for dispensing cells and applying test compounds. NaV late currents were evoked by the application of 300 nM ATX-II. INaL was evoked by depolarizing pulses to 0 mV for 200 ms from a non-inactivating holding potential (e.g., −120 mV) at a frequency of 0.1 Hz. INaL amplitude and stability were determined by analyzing the mean current amplitude over the final 20 ms of the test pulse. Following steady state block with exemplary compounds (e.g., as described herein), a Na^+ free solution containing an impermeant cation (e.g., Choline or NDMG) was added to confirm the identify of the sodium current. Percent steady-state inhibition of INaL was calculated as: [(INaL_compound)/(INaL_control)]*100, where INaL_compound and INaL_control represent INaL recorded in the presence or absence of compound, respectively.
In this table, “A” indicates inhibition of less than 30%; “B” indicates inhibition of between about 30% to about 70%; and “C” indicates inhibition of greater than 70%.

T1 sequence (Q9UQD0 whole entry): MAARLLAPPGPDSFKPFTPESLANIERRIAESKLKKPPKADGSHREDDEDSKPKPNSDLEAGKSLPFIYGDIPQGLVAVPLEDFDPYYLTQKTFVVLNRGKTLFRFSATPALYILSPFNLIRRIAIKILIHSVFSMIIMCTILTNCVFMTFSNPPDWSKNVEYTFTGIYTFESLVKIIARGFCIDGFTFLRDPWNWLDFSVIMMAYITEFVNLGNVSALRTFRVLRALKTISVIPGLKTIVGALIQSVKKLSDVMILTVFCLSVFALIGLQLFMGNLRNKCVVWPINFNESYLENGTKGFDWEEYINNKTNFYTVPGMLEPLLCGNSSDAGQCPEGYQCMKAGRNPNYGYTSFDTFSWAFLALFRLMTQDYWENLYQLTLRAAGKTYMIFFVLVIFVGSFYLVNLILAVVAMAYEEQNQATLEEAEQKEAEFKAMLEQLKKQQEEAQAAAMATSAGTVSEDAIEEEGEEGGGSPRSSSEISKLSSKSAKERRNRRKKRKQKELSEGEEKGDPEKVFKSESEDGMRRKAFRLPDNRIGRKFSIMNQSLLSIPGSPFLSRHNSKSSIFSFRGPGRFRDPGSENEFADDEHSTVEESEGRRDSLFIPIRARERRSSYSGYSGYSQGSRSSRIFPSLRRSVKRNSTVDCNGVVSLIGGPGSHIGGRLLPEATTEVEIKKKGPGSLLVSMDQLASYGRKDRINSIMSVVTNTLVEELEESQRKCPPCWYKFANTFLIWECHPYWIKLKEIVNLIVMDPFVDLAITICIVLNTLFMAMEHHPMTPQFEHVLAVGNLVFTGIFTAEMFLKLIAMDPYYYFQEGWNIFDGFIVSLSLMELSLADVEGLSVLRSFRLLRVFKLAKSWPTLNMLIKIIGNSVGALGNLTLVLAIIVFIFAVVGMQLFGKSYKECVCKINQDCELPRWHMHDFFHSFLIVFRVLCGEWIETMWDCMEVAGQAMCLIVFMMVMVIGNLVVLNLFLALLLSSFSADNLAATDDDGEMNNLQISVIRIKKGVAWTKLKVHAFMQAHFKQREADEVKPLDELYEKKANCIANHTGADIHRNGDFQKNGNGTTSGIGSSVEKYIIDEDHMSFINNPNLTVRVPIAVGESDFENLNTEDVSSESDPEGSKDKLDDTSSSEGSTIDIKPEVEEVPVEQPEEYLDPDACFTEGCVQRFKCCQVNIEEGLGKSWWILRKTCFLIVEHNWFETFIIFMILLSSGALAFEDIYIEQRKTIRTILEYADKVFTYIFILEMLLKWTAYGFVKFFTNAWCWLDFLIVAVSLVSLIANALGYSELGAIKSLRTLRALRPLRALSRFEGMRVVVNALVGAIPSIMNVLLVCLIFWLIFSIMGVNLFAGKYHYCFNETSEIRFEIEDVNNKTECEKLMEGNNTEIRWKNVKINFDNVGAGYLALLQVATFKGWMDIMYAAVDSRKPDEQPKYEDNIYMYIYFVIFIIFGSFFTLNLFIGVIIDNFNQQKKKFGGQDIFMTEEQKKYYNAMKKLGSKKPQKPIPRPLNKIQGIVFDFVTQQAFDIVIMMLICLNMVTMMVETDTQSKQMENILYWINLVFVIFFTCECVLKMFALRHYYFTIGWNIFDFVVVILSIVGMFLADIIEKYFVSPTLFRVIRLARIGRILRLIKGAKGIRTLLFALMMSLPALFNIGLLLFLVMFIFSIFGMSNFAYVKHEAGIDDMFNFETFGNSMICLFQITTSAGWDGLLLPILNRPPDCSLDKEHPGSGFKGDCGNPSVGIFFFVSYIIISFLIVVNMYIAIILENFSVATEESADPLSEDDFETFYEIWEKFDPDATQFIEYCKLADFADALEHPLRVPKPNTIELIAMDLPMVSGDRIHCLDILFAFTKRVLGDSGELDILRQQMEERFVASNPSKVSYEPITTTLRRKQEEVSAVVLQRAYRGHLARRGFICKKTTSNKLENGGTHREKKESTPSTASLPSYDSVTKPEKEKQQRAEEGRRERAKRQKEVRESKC

Row | SMILES | inhibition at 1 µM [%] | INaL hNaV1.6 (1 μM, % inhibition)
1 | Cc1nnc(CCn2nnc3ccc(-c4ccc(OC(F)(F)F)cc4)cc32)o1 [Compound 15] |  | B (inhibition of between about 30% to about 70%)
2 | FC(F)(F)Cn1nnc2cnc(-c3ccc(OC(F)(F)F)cc3)cc21 [Compound 20] |  | A (inhibition of less than 30%)
3 | COCc1cc(OC(F)(F)F)ccc1-c1ccc2nnn(CC(F)(F)F)c2n1 [Compound 18] |  | C (inhibition of greater than 70%)
4 | N#CC1(c2ccc(-c3ccc4nnn(CC(F)(F)F)c4c3)cc2)CC1 [Compound 5] | < 30 | 
5 | FC(F)(F)Cn1nnc2ccc(-c3ccc(OC4CC(F)(F)C4)nc3)cc21 [Compound 10] |  | A (inhibition of less than 30%)
6 | COc1cc(OC(F)(F)F)ccc1-c1ccc2nnn(CC(F)(F)F)c2n1 [Compound 17] |  | C (inhibition of greater than 70%)
7 | Cn1nnc2ccc(-c3ccc(OC(F)(F)F)cc3)cc21 [Compound 8] |  | B (inhibition of between about 30% to about 70%)
8 | FC(F)(F)COc1ccc(-c2ccc3nnn(CC(F)(F)F)c3c2)cn1 [Compound 12] |  | B (inhibition of between about 30% to about 70%)
9 | FC(F)(F)Cn1nnc2ccc(-c3ccc(OC4CC(F)(F)C4)cc3)cc21 [Compound 14] |  | B (inhibition of between about 30% to about 70%)
10 | COCc1cc(OC(F)(F)F)ccc1-c1ccc2nnn(CC(F)(F)F)c2c1 [Compound 4] | 30 to 70 | 
11 | FC(F)(F)Cn1nnc2ccc(-c3ccc(OC(F)(F)F)cc3)nc21 [Compound 1] | 30 to 70 | 
12 | FC(F)(F)Cn1nnc2ccc(-c3ccc(OC(F)(F)F)cc3)cc21 [Compound 2] | > 70 | 
13 | COc1cc(OC(F)(F)F)ccc1-c1ccc2nnn(CC(F)(F)F)c2c1 [Compound 11] |  | A (inhibition of less than 30%)

Second part, led by results:

Row | inhibition at 1 µM [%] | SMILES | INaL hNaV1.6 (1 μM, % inhibition)
14 | 30 to 70 | COCCn1nnc2ccc(-c3ccc(OC(F)(F)F)cc3)cc21 [Compound 16] | 
15 | 30 to 70 | CCn1nnc2ccc(-c3ccc(OC(F)(F)F)cc3)cc21 [Compound 6] | 
16 | < 30 | FC(F)(F)Oc1ccc(-c2ccc3nn[nH]c3c2)cc1 [Compound 7] | 
17 | 30 to 70 | Cc1nnc(CCn2nnc3ccc(-c4ccc(OC(F)(F)F)cc4)nc32)o1 [Compound 9] | 
18 | < 30 | FC(F)(F)Cn1nnc2ncc(-c3ccc(OC(F)(F)F)cc3)cc21 [Compound 21] | 
19 | < 30 | FC(F)(F)Cn1nnc2cnc(-c3ccc(OC(F)(F)F)cc3)nc21 [Compound 19] | 
20 | < 30 | FC(F)Cn1nnc2ccc(-c3ccc(OC(F)(F)F)cc3)cc21 [Compound 13] | 
